From US20260242415A1 (priority 2022, published 2026)

Key:
[1] = tested on: SARS2-S pseudotyped VSV, Beta
[2] = tested on: SARS2-S pseudotyped VSV, Delta
[3] = tested on: SARS2-S pseudotyped VSV, Alpha
[4] = tested on: SARS2-S pseudotyped VSV, Omicron BA.1
[5] = tested on: SARS2-S pseudotyped VSV, Omicron BA.2
SARS-CoV-2 spike protein = SARS-CoV-2 spike protein (Severe acute respiratory syndrome coronavirus 2, UniProt P0DTC2); format: binding; set-up: key: Results labeled “−” represent decreased binding; Results labeled “0” represent substantially similar binding; Results labeled “1” represent the original sequence; Results labeled “+” represent about 105-200% binding; Results labeled “++” represent about 200-300% binding; Results labeled “+++” represent about 300-500% binding; Results labeled “++++” represent over about 500% binding
omicron variant = settings: cited from earlier work

Q: What does the source list for `CC[C@H](C)[C@@H]1NC(=O)[C@H](CCC(N)=O)NC(=O)[C@H](CCC(=O)O)NC(=O)[C@H](CCCNC(=N)N)NC(=O)[C@@H]2CCCN2C(=O)[C@H](CCCNC(=N)N)NC(=O)[C@H](CCCNC(=N)N)NC(=O)[C@H](Cc2ccc(O)cc2)NC(=O)CSC[C@@H](C(=O)NCC(N)=O)NC(=O)[C@H](Cc2ccccc2)NC(=O)[C@H](C(C)C)NC(=O)[C@H](Cc2c[nH]c3ccccc23)NC(=O)[C@H](CC(C)C)NC(=O)[C@H](CO)NC(=O)CNC(=O)[C@H]([C@@H](C)CC)NC(=O)[C@H]([C@@H](C)CC)NC1=O` [Compound S1b3inL1]?
A: IC50 [1]: 5.2 µM; IC50 [2]: 3.5 µM; IC50 [3]: 2.6 µM; IC50 [4]: 5.2 µM; IC50 [5]: 3.5 µM

Q: For ARPREQIIIGSLWVF [SEQ ID NO: 16], which “binding standardized to SEQ ID NO: 1” value (SARS-CoV-2 spike protein) is on record?
A: −

Q: For RAPREQIIIGSLWVF [SEQ ID NO: 17], which “binding standardized to SEQ ID NO: 1” value (SARS-CoV-2 spike protein) is on record?
A: −

Q: With RRPAEQIIIGSLWVF [SEQ ID NO: 19] as the molecule, how does the “binding standardized to SEQ ID NO: 1” value (SARS-CoV-2 spike protein) read?
A: 0

Q: For RRPREQAIIGSLWVF [SEQ ID NO: 22], which “binding standardized to SEQ ID NO: 1” value (SARS-CoV-2 spike protein) is on record?
A: −

Q: With RRPREQIAIGSLWVF [SEQ ID NO: 23] as the molecule, how does the “binding standardized to SEQ ID NO: 1” value (SARS-CoV-2 spike protein) read?
A: −

Q: With RRPREQIIAGSLWVF [SEQ ID NO: 24] as the molecule, how does the “binding standardized to SEQ ID NO: 1” value (SARS-CoV-2 spike protein) read?
A: −

Q: Which “binding standardized to SEQ ID NO: 1” value (SARS-CoV-2 spike protein) does the source give for RRPREQIIIASLWVF [SEQ ID NO: 25] here?
A: −

Q: Which “binding standardized to SEQ ID NO: 1” value (SARS-CoV-2 spike protein) does the source give for RRPREQIIIGALWVF [SEQ ID NO: 26] here?
A: −

Q: With RRPREQIIIGSAWVF [SEQ ID NO: 27] as the molecule, how does the “binding standardized to SEQ ID NO: 1” value (SARS-CoV-2 spike protein) read?
A: −

Q: For RRPREQIIIGSLAVF [SEQ ID NO: 28], which “binding standardized to SEQ ID NO: 1” value (SARS-CoV-2 spike protein) is on record?
A: −

Q: Which “binding standardized to SEQ ID NO: 1” value (SARS-CoV-2 spike protein) does the source give for RRPREQIIIGSLWVF [Compound S1b3inL1] here?
A: 1

Q: Which “fold loss in potency / decrease in activity against omicron” value (omicron variant) does the source give for Sotrovimab here?
A: 3 fold
